What was measured:
[1] = test system: CD3/CD28 (TransAct) activated PBMCs; experiment: PBMC cytokine release by Cytometric BeadArray, Inhibition format (peptide with anti-CD3/CD28 T-cell activator); format: cell-based, human; set-up: key to Inhibition by Analyte: IL-1b / Inhibition by Analyte: IL-2 / Inhibition by Analyte: TNF / Inhibition by Analyte: IP-10 / Inhibition by Analyte: IL-10: X = a hit with significant activation or inhibition of relevant cytokine release
Description: (§1) Peripheral Blood Mononuclear Cells were seeded+/−the T-cell activator […] and +/−peptides for 24-48 hours. Cytokines were measured from the supernatant after incubation by CBA Cytometer.
(§2) Thawing PBMCs: PBMCs were thawed by pre-warming TexMACS media (Miltenyi Biotech) in 20 ml aliquots-1-50 ml conical per donor. After the media was warmed to 37° C., cells were removed from liquid nitrogen and brought to the tissue culture hood. For each donor, 1 ml of media from the warmed aliquot was added to the frozen vial and mixed up and down. The media plus thawed cells were then added back to the 50 ml conical. This was repeated until all the cells were thawed and added to the 50 ml tube. Continue with other donors if used. Spin cells for 5 min at 400×g. Supernatant was aspirated and cells resuspended at ˜10*10^6 cells/ml (see vial for cell number).
(§3) PBMC Plating: Frozen PBMCs from normal, healthy, human volunteers (StemCell Technologies) were thawed and plated at 250,000 cells/well. After PBMCs were thawed and resuspended at […], cells were then counted (Countess III, Thermo Scientific) and adjusted based on counts to […]. Take the number of PBMCs determined by number of wells for the experiment, for example, 10 wells would need 2.5*10^6 cells total or 0.250 ml. The cells needed for the experiment are then transferred to another conical tube. Warmed TexMACS media is added so that the final concentration is 250,000 cells/190 ul media, for example, 10 wells would need 1.9 ml (190 ul×10 wells) of media total minus 0.250 ml of cells (1.9 ml-0.250 ml) or 1.65 ml of media added to the 0.250 ml of cells. Add 190 ul of cells plus media to the 96 well U-bottom plate. Place in incubator until dilutions are made and ready.
(§4) Peptide Dilutions: Ideally, all peptides should be at a starting concentration of at least 10 mM, especially for those in DMSO (ATCC) to reach a final concentration of 1 uM (H2O) or 0.5 uM (DMSO). Dilutions of all test articles should be made at 20× the final concentration, for example, a final concentration of 1 uM peptide would need to be made at 20 uM.
(§5) Reagent Dilution: Dilutions are made in TexMACS media, enough for 10 ul/well in triplicate (30 ul of a 20×). Activator—CD3/CD28 (TransAct; Miltenyi Biotech) or cytokine will be at 21× and added after the 45-minute incubation with peptides. Be sure to include relevant controls—Positive: TransAct+Cells, Negative: Vehicle+Cells. Dilutions should also be made in a ultra-low binding plate (Corning).
(§6) Assay Procedure: Peptide Treatment: Start assay by thawing the cells and plating in a 96 well, U-bottom tissue culture plate (Corning) as described above. Cell plates are placed in a tissue culture incubator (5% CO2, 37° C.). While cells are in the incubator, start making dilutions (optimally 1 hr or less) as described above. Cell plates are removed from the incubator and 10 ul of the 20× dilutions are added to the relevant wells. After the addition of inhibitors, cell plates are placed in the tissue culture incubator for 45 minutes. The plates are removed from the incubator and 10 ul of 21× TransAct is added to the relevant wells*. Plates are then returned to the incubator and incubated for 24 hours. After 24 hours, plates are spun for 5 minutes at 400×g.
(§7) * Activation: This assay can be run in two different formats—Activation and Inhibition. The procedure is the same except no TransAct is needed in the peptide wells for Activation. TransAct is only needed in the control wells. The purpose of this procedure is to determine the possible response from peptides alone.
(§8) Cytometric BeadArray (CBA): After the spin, supernatants (˜150 ul) are transferred to a new, ultra-low binding U-bottom plate. Supernatants are then frozen at −20° C. until thawed for CBA (BD) to determine levels of human IL-2, TNFα, IL-1b, IP-10, IL-10, and IFNg. CBA was run according to the manufacturers protocol.

[2] = test system: Peripheral Blood Mononuclear Cells; experiment: PBMC cytokine release by Cytometric BeadArray, Activation format (peptide applied to PBMCs alone); format: cell-based, human; set-up: key: X = a hit with significant activation or inhibition of relevant cytokine release; conditions: 24 hours, supernatant CBA
Description: as §1, §2, §3, §4, §5, §6, §7, §8

[3] = peptide applied with anti-CD3/CD28 T-cell activator, 24 hours, supernatant CBA

Molecule | Inhibition by Analyte: IL-1b [1, 3] | Inhibition by Analyte: TNF [1, 3] | Activation by Analyte: IP-10 [2] | further results
SEQ ID NO: 1184: target protein of the Sequence Listing, synthesized peptide (LEMEGGCSPPIPHAGHRWKCQTVRVHA; listed as Homo sapiens) | X | X |  | Inhibition by Analyte: IL-2 [1, 3]: X; Inhibition by Analyte: IP-10 [1, 3]: X
SEQ ID NO: 3462: target protein of the Sequence Listing, secreted peptide (METSCSLWVSSELFCRSVKVFFCLLALHLSALPHSSWTQDKNLGLAGMVELK; listed as Homo sapiens) |  |  | X | 
SEQ ID NO: 3585: target protein, anti-inflammatory cytokine modulator, secreted peptide (VAEPRRGHLKAALASLGGAAPAAATNGSPPLFK; listed as Homo sapiens) | X | X |  | release of TNF-alpha from activated PBMCs ([1]; CD3/CD28 (TransAct) activated PBMCs, FIG. 7): significantly blocks; release of IL-1b from activated PBMCs ([1]; CD3/CD28 (TransAct) activated PBMCs, FIG. 8): does not block; Inhibition by Analyte: IL-2 [1, 3]: X
SEQ ID NO: 4174: target protein of the Sequence Listing, secreted peptide (MRSPLSASALLLWSSSVARAFSSPSLLMAVPSPTCSRY; listed as Homo sapiens) | X | X |  | Inhibition by Analyte: IL-10 [1, 3]: X; Inhibition by Analyte: IP-10 [1, 3]: X
SEQ ID NO: 4615: target protein of the Sequence Listing, secreted peptide (MTAFGLGIPTFLVMQPSGSQPRFPALTQNGVALVRTPLTSVYLRVRICRVLGPRSQPS; listed as Homo sapiens) | X | X | X | Activation by Analyte: IL-10 [2]: X
SEQ ID NO: 5627: target protein of the Sequence Listing, secreted peptide (MSEVATLLFSQTALASLESVHPAGHKLWMRNLRQVTSP; listed as Homo sapiens) |  | X |  | Inhibition by Analyte: IL-2 [1, 3]: X
SEQ ID NO: 5730: target protein of the Sequence Listing, secreted peptide (MVSHRKDWRRVNLRFSSCLLLSICLDDKPSADELCFWTDHGRSQLTCPSLGVSQGHARSS; listed as Homo sapiens) |  |  | X | 
SEQ ID NO: 5843: target protein of the Sequence Listing, secreted peptide (MGGKSWLFFYSLVFCALLPLPRREDPFKLF; listed as Homo sapiens) | X |  |  | 
SEQ ID NO: 5848: target protein of the Sequence Listing, secreted peptide (MARPLSLAAAGAPDLLFTALCSLLIEAQPLRPFDLQVLGDPQPRARTP; listed as Homo sapiens) |  |  |  | Activation by Analyte: IL-2 [2]: X
SEQ ID NO: 5862: target protein of the Sequence Listing, secreted peptide (MESRTLLLLFSGAVALIQTWADYNYNQGRNDLIFTLQLWKRQ; listed as Homo sapiens) | X |  |  | 
SEQ ID NO: 6295: target protein of the Sequence Listing, secreted peptide (MWWKTPCWWTPSTTATSSSAEARSCGRLLKSMAG; listed as Homo sapiens) |  |  | X | 
SEQ ID NO: 6518: target protein of the Sequence Listing, secreted peptide (MSFDHPEKNGPWPADPINLPSHG; listed as Homo sapiens) |  | X |  | Inhibition by Analyte: IL-2 [1, 3]: X
SEQ ID NO: 5931: target protein of the Sequence Listing, secreted peptide (peptide, listed as Homo sapiens) MSCGSRRGPSLASSLAWLQLQSGTRPFCSSSPPYFLSHGRRIPFSHPRKESALRATKEPRTHRTNTSLADLPSPAPAHL |  |  |  | Activation by Analyte: IL-1b [2]: X
SEQ ID NO: 3169: target protein of the Sequence Listing, secreted peptide (peptide, listed as Homo sapiens) MCHKGWHGPGVPHHVAFTPCKARLRPATQCQAHSSPRRKMVQAGSIPLAAASGRLCLTHAGWWRGAS |  |  | X | 
SEQ ID NO: 5537: target protein of the Sequence Listing, secreted peptide (peptide, listed as Homo sapiens) MQRLPAAFFRSFAAQGLGESVHINTPTSLSLRGRPFISSSGPGARARVTCAPCLHAARILCCFWRGLHR |  |  | X | 
SEQ ID NO: 6517: target protein of the Sequence Listing, secreted peptide (peptide, listed as Homo sapiens) VALSLLTSQGRQRRAGPSTAFAALPATVATFSAMTESESLRTSRHADTALARVRRGAKFRGQARTRYCARARSHRFTPPSGA |  |  | X | 
SEQ ID NO: 3494: target protein of the Sequence Listing, secreted peptide (peptide, listed as Homo sapiens) MSYLPTNPPGSILTCWLGVSLGSHRSARGGSTIYGRLLPRRKDVWFSQAKDVPKYRGLLYLQS |  |  | X | 
SEQ ID NO: 4566: target protein of the Sequence Listing, secreted peptide (peptide, listed as Homo sapiens) LRPRSAAFAPRYTRLVMRRSSRSFRLQCTGFPSSSAQSISAHLSNSMPSSLLTISRCPGMFAVRCPL |  |  | X | 
SEQ ID NO: 5631: target protein of the Sequence Listing, secreted peptide (peptide, listed as Homo sapiens) MMAQKSKFRVLFMSDPHGTAMPLTSAILESSRASLAAKQEDKCFTDIRNLKWKHFLEHTKQPP |  |  | X | 
